#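 Compound exposure: 48 hours, 5 concentrations, 96-well plates. GI50 = concentration required for 50% inhibition of growth. TGI: total growth inhibition.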
# What was measured:
# Test in all cases: NCI tumour cell line growth inhibition, 48 h
# LOX IMVI melanoma = test system: LOX IMVI melanoma
# KM12 colon = test system: KM12 colon
# BT-549 breast = test system: BT-549 breast
# IGROV1 ovarian = test system: IGROV1 ovarian
# HT29 colon = test system: HT29 colon
# SF-295 CNS = test system: SF-295 CNS
# T-47D breast = test system: T-47D breast
# K-562 leukemia = test system: K-562 leukemia
# HOP-62 NSCLC = test system: HOP-62 NSCLC
# UO-31 renal = test system: UO-31 renal
# MOLT-4 leukemia = test system: MOLT-4 leukemia
# SK-OV-3 ovarian = test system: SK-OV-3 ovarian
# SK-MEL-28 melanoma = test system: SK-MEL-28 melanoma
# OVCAR-8 ovarian = test system: OVCAR-8 ovarian
# NCI/ADR-RES ovarian = test system: NCI/ADR-RES ovarian
# NCI-H460 lung = test system: NCI-H460 lung
# SNB-19 CNS = test system: SNB-19 CNS
# HS 578T breast = test system: HS 578T breast
# OVCAR-5 ovarian = test system: OVCAR-5 ovarian
# MCF7 breast = test system: MCF7 breast
# EKVX NSCLC = test system: EKVX NSCLC
# COLO 205 colon = test system: COLO 205 colon
# MDA-MB-231 breast = test system: MDA-MB-231 breast
# SK-MEL-5 melanoma = test system: SK-MEL-5 melanoma
# A498 renal = test system: A498 renal
# NCI-H522 lung = test system: NCI-H522 lung
# CCRF-CEM leukemia = test system: CCRF-CEM leukemia
# SF-268 CNS = test system: SF-268 CNS
# SN12C renal = test system: SN12C renal
# NCI-H226 lung = test system: NCI-H226 lung
# SNB-75 CNS = test system: SNB-75 CNS
# RPMI-8226 leukemia = test system: RPMI-8226 leukemia
# HCT-15 colon = test system: HCT-15 colon
# MDA-MB-435 = test system: MDA-MB-435
# U251 CNS = test system: U251 CNS
# UACC-62 melanoma = test system: UACC-62 melanoma
# HCT-116 colon = test system: HCT-116 colon
# HOP-92 NSCLC = test system: HOP-92 NSCLC
# CAKI-1 renal = test system: CAKI-1 renal
# ACHN renal = test system: ACHN renal
# SF-539 CNS = test system: SF-539 CNS
# SR leukemia = test system: SR leukemia
# RXF 393 renal = test system: RXF 393 renal
# MALME-3M melanoma = test system: MALME-3M melanoma
# TK-10 renal = test system: TK-10 renal
# HL-60(TB) leukemia = test system: HL-60(TB) leukemia
# OVCAR-4 ovarian = test system: OVCAR-4 ovarian
# SK-MEL-2 melanoma = test system: SK-MEL-2 melanoma
# M14 melanoma = test system: M14 melanoma
# HCC-2998 colon = test system: HCC-2998 colon
# PC-3 prostate = test system: PC-3 prostate
# OVCAR-3 ovarian = test system: OVCAR-3 ovarian
# UACC-257 melanoma = test system: UACC-257 melanoma
# 786-0 renal = test system: 786-0 renal
# SW-620 colon = test system: SW-620 colon
# DU-145 prostate = test system: DU-145 prostate
# A549 NSCLC = test system: A549 NSCLC
# NCI-H23 lung = test system: NCI-H23 lung
smiles,measurement,setting,value
c1ccc2c(NCCCn3ccnc3)c3oc4ccccc4c3nc2c1,GI50,LOX IMVI melanoma,1.35 µM
same,TGI,LOX IMVI melanoma,3.3 µM
same,GI50,KM12 colon,2.51 µM
same,TGI,KM12 colon,> 100 µM
same,GI50,BT-549 breast,1.98 µM
same,TGI,BT-549 breast,4.75 µM
same,GI50,IGROV1 ovarian,2.82 µM
same,TGI,IGROV1 ovarian,10.8 µM
same,GI50,HT29 colon,1.05 µM
same,TGI,HT29 colon,3.08 µM
same,GI50,SF-295 CNS,2.53 µM
same,TGI,SF-295 CNS,10.5 µM
same,GI50,T-47D breast,2.31 µM
same,TGI,T-47D breast,8.53 µM
same,GI50,K-562 leukemia,1.81 µM
same,TGI,K-562 leukemia,> 100 µM
same,GI50,HOP-62 NSCLC,1.59 µM
same,TGI,HOP-62 NSCLC,4.3 µM
same,GI50,UO-31 renal,1.42 µM
same,TGI,UO-31 renal,3.28 µM
same,GI50,MOLT-4 leukemia,0.524 µM
same,TGI,MOLT-4 leukemia,71.8 µM
same,GI50,SK-OV-3 ovarian,2.3 µM
same,TGI,SK-OV-3 ovarian,6.85 µM
same,GI50,SK-MEL-28 melanoma,2.15 µM
same,TGI,SK-MEL-28 melanoma,4.32 µM
same,GI50,OVCAR-8 ovarian,1.58 µM
same,TGI,OVCAR-8 ovarian,4.55 µM
same,GI50,NCI/ADR-RES ovarian,1.87 µM
same,TGI,NCI/ADR-RES ovarian,6.18 µM
same,GI50,NCI-H460 lung,1.27 µM
same,TGI,NCI-H460 lung,8.27 µM
same,GI50,SNB-19 CNS,2.6 µM
same,TGI,SNB-19 CNS,14.2 µM
same,GI50,HS 578T breast,2.79 µM
same,TGI,HS 578T breast,14 µM
same,GI50,OVCAR-5 ovarian,1.99 µM
same,TGI,OVCAR-5 ovarian,6.54 µM
same,GI50,MCF7 breast,1.78 µM
same,TGI,MCF7 breast,7.62 µM
same,GI50,EKVX NSCLC,2.8 µM
same,TGI,EKVX NSCLC,11 µM
same,GI50,COLO 205 colon,1.42 µM
same,TGI,COLO 205 colon,3.04 µM
same,GI50,MDA-MB-231 breast,2.04 µM
same,TGI,MDA-MB-231 breast,7.73 µM
same,GI50,SK-MEL-5 melanoma,2.27 µM
same,TGI,SK-MEL-5 melanoma,5.14 µM
same,GI50,A498 renal,2.89 µM
same,TGI,A498 renal,9.13 µM
same,GI50,NCI-H522 lung,1.58 µM
same,TGI,NCI-H522 lung,3.63 µM
same,GI50,CCRF-CEM leukemia,2.35 µM
same,TGI,CCRF-CEM leukemia,18 µM
same,GI50,SF-268 CNS,2.2 µM
same,TGI,SF-268 CNS,12.1 µM
same,GI50,SN12C renal,1.7 µM
same,TGI,SN12C renal,11 µM
same,GI50,NCI-H226 lung,1.94 µM
same,TGI,NCI-H226 lung,4.7 µM
same,GI50,SNB-75 CNS,1.85 µM
same,TGI,SNB-75 CNS,4.93 µM
same,GI50,RPMI-8226 leukemia,2.04 µM
same,TGI,RPMI-8226 leukemia,5.62 µM
same,GI50,HCT-15 colon,1.79 µM
same,TGI,HCT-15 colon,10.6 µM
same,GI50,MDA-MB-435,2.13 µM
same,TGI,MDA-MB-435,5.2 µM
same,GI50,U251 CNS,2.33 µM
same,TGI,U251 CNS,10.3 µM
same,GI50,UACC-62 melanoma,2.01 µM
same,TGI,UACC-62 melanoma,4.62 µM
same,GI50,HCT-116 colon,0.518 µM
same,TGI,HCT-116 colon,10.3 µM
same,GI50,HOP-92 NSCLC,1.11 µM
same,TGI,HOP-92 NSCLC,3.68 µM
same,GI50,CAKI-1 renal,1.7 µM
same,TGI,CAKI-1 renal,6.56 µM
same,GI50,ACHN renal,0.942 µM
same,TGI,ACHN renal,10.5 µM
same,GI50,SF-539 CNS,1.71 µM
same,TGI,SF-539 CNS,3.94 µM
same,GI50,SR leukemia,1.73 µM
same,TGI,SR leukemia,> 100 µM
same,GI50,RXF 393 renal,1.41 µM
same,TGI,RXF 393 renal,3.23 µM
same,GI50,MALME-3M melanoma,2.66 µM
same,TGI,MALME-3M melanoma,6.23 µM
same,GI50,TK-10 renal,3.29 µM
same,TGI,TK-10 renal,8.62 µM
same,GI50,HL-60(TB) leukemia,2.5 µM
same,TGI,HL-60(TB) leukemia,7.72 µM
same,GI50,OVCAR-4 ovarian,2.12 µM
same,TGI,OVCAR-4 ovarian,7.47 µM
same,GI50,SK-MEL-2 melanoma,1.85 µM
same,TGI,SK-MEL-2 melanoma,3.6 µM
same,GI50,M14 melanoma,1.89 µM
same,TGI,M14 melanoma,3.56 µM
same,GI50,HCC-2998 colon,1.36 µM
same,TGI,HCC-2998 colon,2.99 µM
same,GI50,PC-3 prostate,2.08 µM
same,TGI,PC-3 prostate,6.85 µM
same,GI50,OVCAR-3 ovarian,3.38 µM
same,TGI,OVCAR-3 ovarian,> 100 µM
same,GI50,UACC-257 melanoma,2.35 µM
same,TGI,UACC-257 melanoma,6 µM
same,GI50,786-0 renal,2.57 µM
same,TGI,786-0 renal,13.2 µM
same,GI50,SW-620 colon,0.792 µM
same,TGI,SW-620 colon,10.9 µM
same,GI50,DU-145 prostate,2.63 µM
same,TGI,DU-145 prostate,15.5 µM
COc1cc(-c2nnc(SCc3ccc(O)c4ncccc34)n2-c2ccccc2)cc(OC)c1OC,GI50,LOX IMVI melanoma,0.18 µM
same,TGI,LOX IMVI melanoma,4.44 µM
same,GI50,KM12 colon,0.336 µM
same,TGI,KM12 colon,> 100 µM
same,GI50,BT-549 breast,0.178 µM
same,TGI,BT-549 breast,> 26 µM
same,GI50,IGROV1 ovarian,0.272 µM
same,TGI,IGROV1 ovarian,> 100 µM
same,GI50,HT29 colon,2.04 µM
same,TGI,HT29 colon,> 100 µM
same,GI50,SF-295 CNS,0.2 µM
same,TGI,SF-295 CNS,> 100 µM
same,GI50,A549 NSCLC,0.412 µM
same,TGI,A549 NSCLC,> 100 µM
same,GI50,T-47D breast,0.0712 µM
same,TGI,T-47D breast,> 100 µM
same,GI50,K-562 leukemia,0.083 µM
same,TGI,K-562 leukemia,> 100 µM
same,GI50,HOP-62 NSCLC,0.261 µM
same,GI50,UO-31 renal,0.113 µM
same,TGI,UO-31 renal,0.991 µM
same,GI50,MOLT-4 leukemia,0.294 µM
same,TGI,MOLT-4 leukemia,> 100 µM
same,GI50,NCI-H23 lung,0.0757 µM
same,TGI,NCI-H23 lung,> 100 µM
same,GI50,SK-OV-3 ovarian,0.302 µM
same,TGI,SK-OV-3 ovarian,23.5 µM
same,GI50,SK-MEL-28 melanoma,0.367 µM
same,TGI,SK-MEL-28 melanoma,> 100 µM
same,GI50,OVCAR-8 ovarian,0.102 µM
same,TGI,OVCAR-8 ovarian,> 100 µM
same,GI50,NCI/ADR-RES ovarian,0.0678 µM
same,TGI,NCI/ADR-RES ovarian,> 100 µM
same,GI50,NCI-H460 lung,0.05 µM
same,TGI,NCI-H460 lung,2.03 µM
same,GI50,SNB-19 CNS,0.128 µM
same,TGI,SNB-19 CNS,> 100 µM
same,GI50,HS 578T breast,0.161 µM
same,GI50,OVCAR-5 ovarian,0.668 µM
same,TGI,OVCAR-5 ovarian,> 100 µM
same,GI50,MCF7 breast,0.0377 µM
same,TGI,MCF7 breast,> 100 µM
same,GI50,EKVX NSCLC,0.367 µM
same,TGI,EKVX NSCLC,> 100 µM
same,GI50,MDA-MB-231 breast,0.39 µM
same,TGI,MDA-MB-231 breast,> 100 µM
same,GI50,SK-MEL-5 melanoma,0.207 µM
same,TGI,SK-MEL-5 melanoma,0.899 µM
same,GI50,A498 renal,0.32 µM
same,TGI,A498 renal,2.32 µM
same,GI50,NCI-H522 lung,0.0863 µM
same,TGI,NCI-H522 lung,0.921 µM
same,GI50,CCRF-CEM leukemia,0.188 µM
same,TGI,CCRF-CEM leukemia,> 100 µM
same,GI50,SF-268 CNS,0.218 µM
same,TGI,SF-268 CNS,> 100 µM
same,GI50,SN12C renal,0.211 µM
same,TGI,SN12C renal,> 100 µM
same,GI50,NCI-H226 lung,0.359 µM
same,TGI,NCI-H226 lung,> 100 µM
same,GI50,SNB-75 CNS,0.229 µM
same,TGI,SNB-75 CNS,> 20.2 µM
same,GI50,RPMI-8226 leukemia,0.19 µM
same,TGI,RPMI-8226 leukemia,> 100 µM
same,GI50,HCT-15 colon,0.053 µM
same,TGI,HCT-15 colon,> 100 µM
same,GI50,MDA-MB-435,0.194 µM
same,TGI,MDA-MB-435,> 100 µM
same,GI50,U251 CNS,0.066 µM
same,TGI,U251 CNS,> 100 µM
same,GI50,UACC-62 melanoma,0.331 µM
same,TGI,UACC-62 melanoma,2.34 µM
same,GI50,HCT-116 colon,0.0979 µM
same,TGI,HCT-116 colon,> 40.3 µM
same,GI50,CAKI-1 renal,0.274 µM
same,TGI,CAKI-1 renal,> 100 µM
same,GI50,ACHN renal,0.285 µM
same,TGI,ACHN renal,> 100 µM
same,GI50,SF-539 CNS,0.262 µM
same,GI50,SR leukemia,0.14 µM
same,TGI,SR leukemia,> 100 µM
same,GI50,MALME-3M melanoma,0.336 µM
same,TGI,MALME-3M melanoma,> 20.6 µM
same,GI50,TK-10 renal,0.291 µM
same,TGI,TK-10 renal,> 100 µM
same,GI50,HL-60(TB) leukemia,0.276 µM
same,GI50,OVCAR-4 ovarian,0.4 µM
same,TGI,OVCAR-4 ovarian,> 100 µM
same,GI50,SK-MEL-2 melanoma,0.197 µM
same,TGI,SK-MEL-2 melanoma,0.626 µM
same,GI50,M14 melanoma,0.386 µM
same,TGI,M14 melanoma,2.42 µM
same,GI50,HCC-2998 colon,0.447 µM
same,TGI,HCC-2998 colon,> 100 µM
same,GI50,PC-3 prostate,0.0874 µM
same,TGI,PC-3 prostate,> 100 µM
same,GI50,UACC-257 melanoma,0.342 µM
same,TGI,UACC-257 melanoma,3.22 µM
same,GI50,786-0 renal,0.498 µM
same,TGI,786-0 renal,> 20.9 µM
same,GI50,SW-620 colon,0.158 µM
same,TGI,SW-620 colon,> 100 µM
same,GI50,DU-145 prostate,0.273 µM
same,TGI,DU-145 prostate,> 100 µM
